Laboratory results as given in patent US10561638B2, “Methods for treating dependence” (Biotie Therapies, Inc., priority 2007, dated 2020).

Molecular target: T1, human dopamine β-hydroxylase (Homo sapiens, UniProt P09172)
T1 construct: Human secretory DBH was purified from the culture medium of the neuroblastoma cell line SK-N-SH; endogenous in cells; host or cells: SK-N-SH neuroblastoma cells (enzyme secreted into the culture medium, purified on lentil lectin-sepharose)
T1 sequence (P09172 40-617 limits assumed): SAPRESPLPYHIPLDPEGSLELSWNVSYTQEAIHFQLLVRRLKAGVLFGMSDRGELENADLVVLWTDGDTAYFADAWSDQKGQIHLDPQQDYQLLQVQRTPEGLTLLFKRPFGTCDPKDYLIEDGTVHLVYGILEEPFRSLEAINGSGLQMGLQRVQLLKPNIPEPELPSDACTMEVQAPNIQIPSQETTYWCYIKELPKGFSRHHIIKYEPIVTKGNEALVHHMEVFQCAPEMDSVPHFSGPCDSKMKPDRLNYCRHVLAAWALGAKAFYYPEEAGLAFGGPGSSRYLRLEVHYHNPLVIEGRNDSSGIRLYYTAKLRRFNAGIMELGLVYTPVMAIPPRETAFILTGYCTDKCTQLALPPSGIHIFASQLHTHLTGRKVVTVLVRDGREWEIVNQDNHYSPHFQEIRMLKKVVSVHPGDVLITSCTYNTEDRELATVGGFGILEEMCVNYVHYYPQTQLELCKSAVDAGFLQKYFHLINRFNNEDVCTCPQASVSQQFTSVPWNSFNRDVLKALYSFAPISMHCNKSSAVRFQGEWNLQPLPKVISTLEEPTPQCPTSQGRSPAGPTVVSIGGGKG
Assay: DBH assay, conversion of tyramine to octopamine
Format: biochemical
Protocol: Bovine and human dopamine β-hydroxylase activity were assayed by measuring the conversion of tyramine to octopamine. Bovine adrenal dopamine β-hydroxylase was obtained from Sigma Chemicals (St Louis, Mo., USA) whereas human dopamine β-hydroxylase was purified from the culture medium of the neuroblastoma cell line SK-N-SH. The assay was performed at pH 5.2 and 32° C. in a medium containing 0.125 M NaAc, 10 mM fumarate, 0.5-2 μM CuSO4, 0.1 mg·ml^−1 catalase, 0.1 mM tyramine and 4 mM ascorbate. In a typical assay, 0.5-1 milliunits of enzyme were added to the reaction mixture and, subsequently, a substrate mixture containing catalase, tyramine and ascorbate was added to initiate the reaction (final volume of 200 μl). Samples were incubated with or without the appropriate concentration of nepicastat or Compound B at 37° C. for 30 to 40 minutes. The reaction was quenched by the stop solution containing 25 mM EDTA and 240 μM 3-hydroxytyramine (internal standard). The samples were analyzed for octopamine by reverse phase high pressure liquid chromatography (HPLC) using ultraviolet-detection at […]. The HPLC chromatography run was carried out at the flow rate of 1 ml·min^−1 using a LiChroCART 125-4 RP-18 column and isocratic elution with 10 mM acidic acid, 10 mM 1-heptane sulfonic acid, 12 mM tetrabutyl ammonium phosphate and 10% methanol. The remaining percent activity was calculated based on controls, corrected using internal standards and fitted to a non-linear four-parameter concentration-response curve.
DBH activity was assayed by measuring the conversion of tyramine to octopamine. Bovine DBH from adrenal glands was obtained from Sigma Chemical Co (St Louis, Mo.). Human secretory DBH was purified from the culture medium of the neuroblastoma cell line SK-N-SH. The assay was performed at pH 5.2 and 32° C. in 0.125 M NaOAc, 10 mM fumarate, 0.5-2 μM CUSO4, 0.1 mg/mL catalase, 0.1 mM tyramine and 4 mM ascorbate. In a typical assay, 0.5-1 milliunits of enzyme were added to the reaction mixture and then a substrate mixture containing catalase, tyramine and ascorbate was added to initiate the reaction (final volume of 200 μL). Samples were incubated with or without the appropriate concentration of the inhibitor at 37° C. for 30-40 min. The reaction was quenched by the stop solution containing 25 mM EDTA and 240 μM 3-hydroxytyramine (internal standard). The samples were analyzed for octopamine by reverse phase HPLC using UV detection at […]. The remaining percent activity was calculated based on controls (without inhibitor), corrected using internal standards and fitted to a non-linear 4-parameter concentration-response curve to obtain IC50 values.
Bovine DBH from adrenal glands was obtained from Sigma Chemicals (St. Louis, Mo.). Human secretory DBH was purified from the culture medium of the neuroblastoma cell line SK-N-SH and was used to obtain the inhibition data. A lentil lectin-sepharose column containing 25 ml gel was prepared and equilibrated with 50 mM KH2PO4, pH 6.5, 0.5 M NaCl. The column was eluted with 35 ml of 10% methyl a, D-mannopyranoside in 50 mM KH2PO4, pH 6.5, 0.5 M NaCl at 0.5 ml/min. Fraction containing most enzymatic activities were pooled and concentrated with an Amicon stirred cell using a YM30 membrane. Methyl a, D-mannopyranoside was removed by buffer exchange with in 50 mM KH2PO4, pH 6.5, 0.1M NaCl. The concentrated enzyme solution was aliquoted and stored at −25° C.
An HPLC assay was used to measure DBH activity using tyramine and ascorbate as substrates. […]

Structure (SMILES)	selectivity for dopamine-β-hydroxylase over the other enzymes studied [fold]	potency of nepicastat relative to SKF-102698 (human DBH) [fold]	potency of nepicastat relative to SKF-102698 (human and bovine DBH)	potency of nepicastat relative to the R-enantiomer (human and bovine DBH)	potency of nepicastat relative to Compound B (human enzyme) [fold]	IC50 (0.1 mM tyramine, 4 mM ascorbate, pH 5.2) [nM]
Cl.NCc1c[nH]c(=S)n1[C@H]1CCc2c(F)cc(F)cc2C1 [nepicastat, (S)-5-Aminomethyl-1-(5,7-difluoro-1,2,3,4-tetrahydronaphth-2-yl)-2,3-dihydro-2-thioxo-1H-imidazole hydrochloride]	> 1000	9	8-9 fold	2-3 fold	2	–
Fc1cc(F)cc(Cn2cc[nH]c2=S)c1 [SKF-102698, reference compound]	–	–	–	–	–	85 ± 3.7
